{
  "source": "BindingDB's records for doi:10.1021/jm7011613",
  "about": "(Abbott Laboratories, 2008)",
  "data": [
    {"target": "Cannabinoid receptor 2 (Homo sapiens, UniProt P34972)", "sequence (P34972 whole entry)": "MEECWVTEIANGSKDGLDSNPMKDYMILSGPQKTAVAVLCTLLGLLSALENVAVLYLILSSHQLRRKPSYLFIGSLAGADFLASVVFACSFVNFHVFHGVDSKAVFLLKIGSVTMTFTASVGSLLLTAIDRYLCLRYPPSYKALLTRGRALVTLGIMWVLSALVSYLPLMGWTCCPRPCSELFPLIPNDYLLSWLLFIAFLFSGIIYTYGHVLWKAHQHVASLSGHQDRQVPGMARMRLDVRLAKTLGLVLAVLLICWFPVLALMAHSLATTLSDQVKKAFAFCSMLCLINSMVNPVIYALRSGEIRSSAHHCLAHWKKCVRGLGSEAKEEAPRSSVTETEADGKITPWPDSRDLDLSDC", "test": "Radioligand Binding Assay", "experimental": "IC50 values for test compounds were determined from nonlinear regression analysis of data collected from ligand binding experiments. The inhibition constant (Ki) was calculated from IC50 value by the Cheng and Prusoff equation.", "units": {"EC50": "nM"}, "values": [
      {"smiles": "CC1(C)C(C(=O)c2cn(CC3CCOCC3)c3cc(O)c(O)cc23)C1(C)C", "note": "[1-(oxan-4-ylmethyl)-3-[(2,2,3,3-tetramethylcyclopropyl)carbonyl]-1H-indole-5,6-diol]", "EC50": 28},
      {"smiles": "CC1(C)C(C(=O)c2cn(CC3CCOCC3)c3ccc(N)cc23)C1(C)C", "note": "[1-(oxan-4-ylmethyl)-3-[(2,2,3,3-tetramethylcyclopropyl)carbonyl]-1H-indol-5-amine]", "EC50": 15.5},
      {"smiles": "COc1ccc2c(c1)c(C(=O)C1C(C)(C)C1(C)C)cn2CC1CCOCC1", "note": "[5-methoxy-1-(oxan-4-ylmethyl)-3-[(2,2,3,3-tetramethylcyclopropyl)carbonyl]-1H-indole]", "EC50": 101},
      {"smiles": "CC1(C)C(C(=O)c2cn(CC3CCOCC3)c3cc(Cl)ccc23)C1(C)C", "note": "[6-chloro-1-(oxan-4-ylmethyl)-3-[(2,2,3,3-tetramethylcyclopropyl)carbonyl]-1H-indole]", "EC50": 21},
      {"smiles": "CC1(C)C(C(=O)c2cn(CC3CCOCC3)c3ccc(O)cc23)C1(C)C", "note": "[1-(oxan-4-ylmethyl)-3-[(2,2,3,3-tetramethylcyclopropyl)carbonyl]-1H-indol-5-ol]", "EC50": 11},
      {"smiles": "CC1(C)C(C(=O)c2cn(CC3CCOCC3)c3ccc(C#N)cc23)C1(C)C", "note": "[1-(oxan-4-ylmethyl)-3-[(2,2,3,3-tetramethylcyclopropyl)carbonyl]-1H-indole-5-carbonitrile]", "EC50": 263},
      {"smiles": "CC1(C)C(C(=O)c2cn(CC3CCOCC3)c3cc(C#N)ccc23)C1(C)C", "note": "[1-(oxan-4-ylmethyl)-3-[(2,2,3,3-tetramethylcyclopropyl)carbonyl]-1H-indole-6-carbonitrile]", "EC50": 53},
      {"smiles": "CC1(C)C(C(=O)c2cn(CC3CCOCC3)c3ccc(Br)cc23)C1(C)C", "note": "[5-bromo-1-(oxan-4-ylmethyl)-3-[(2,2,3,3-tetramethylcyclopropyl)carbonyl]-1H-indole]", "EC50": 390},
      {"smiles": "CC1(C)C(C(=O)c2cn(CC3CCOCC3)c3cc(O)ccc23)C1(C)C", "note": "[1-(oxan-4-ylmethyl)-3-[(2,2,3,3-tetramethylcyclopropyl)carbonyl]-1H-indol-6-ol]", "EC50": 18.5},
      {"smiles": "Cc1c(C(=O)C2C(C)(C)C2(C)C)c2ccccc2n1CCN1CCOCC1", "note": "[4-(2-{2-methyl-3-[(2,2,3,3-tetramethylcyclopropyl)carbonyl]-1H-indol-1-yl}ethyl)morpholine]", "EC50": 362},
      {"smiles": "CC1(C)C(C(=O)c2cn(CC3CCOCC3)c3ccc(CO)cc23)C1(C)C", "note": "[[1-(oxan-4-ylmethyl)-3-[(2,2,3,3-tetramethylcyclopropyl)carbonyl]-1H-indol-5-yl]methanol]", "EC50": 97.5},
      {"smiles": "CC1(C)C(C(=O)c2cn(CC3CCOCC3)c3ccccc23)C1(C)C", "note": "[1-(oxan-4-ylmethyl)-3-[(2,2,3,3-tetramethylcyclopropyl)carbonyl]-1H-indole]", "EC50": 9.5},
      {"smiles": "CC1(C)C(C(=O)c2cn(CCN3CCOCC3)c3cccc(N)c23)C1(C)C", "note": "[1-[2-(morpholin-4-yl)ethyl]-3-[(2,2,3,3-tetramethylcyclopropyl)carbonyl]-1H-indol-4-amine]", "EC50": 215},
      {"smiles": "COCc1ccc2c(c1)c(C(=O)C1C(C)(C)C1(C)C)cn2CC1CCOCC1", "note": "[5-(methoxymethyl)-1-(oxan-4-ylmethyl)-3-[(2,2,3,3-tetramethylcyclopropyl)carbonyl]-1H-indole]", "EC50": 74.5},
      {"smiles": "CC1(C)C(C(=O)c2cn(CCN3CCOCC3)c3ccccc23)C1(C)C", "note": "[4-(2-{3-[(2,2,3,3-tetramethylcyclopropyl)carbonyl]-1H-indol-1-yl}ethyl)morpholine]", "EC50": 17.5},
      {"smiles": "CC1(C)C(C(=O)c2cn(CC3CCOCC3)c3cccc(OCc4ccccc4)c23)C1(C)C", "note": "[4-(benzyloxy)-1-(oxan-4-ylmethyl)-3-[(2,2,3,3-tetramethylcyclopropyl)carbonyl]-1H-indole]", "EC50": 502},
      {"smiles": "CC1(C)C(C(=O)c2cn(CC3CCOCC3)c3ccc(F)cc23)C1(C)C", "note": "[5-fluoro-1-(oxan-4-ylmethyl)-3-[(2,2,3,3-tetramethylcyclopropyl)carbonyl]-1H-indole]", "EC50": 36.5},
      {"smiles": "CC1(C)C(C(=O)c2cn(CC3CCOCC3)c3ccc(Cl)cc23)C1(C)C", "note": "[5-chloro-1-(oxan-4-ylmethyl)-3-[(2,2,3,3-tetramethylcyclopropyl)carbonyl]-1H-indole]", "EC50": 132},
      {"smiles": "CC1(C)C(C(=O)c2cn(CC3CCOCC3)c3cccc(O)c23)C1(C)C", "note": "[1-(oxan-4-ylmethyl)-3-[(2,2,3,3-tetramethylcyclopropyl)carbonyl]-1H-indol-4-ol]", "EC50": 73},
      {"smiles": "CC1(C)C(C(=O)c2cn(CC3CCOCC3)c3c(F)c(F)c(F)c(F)c23)C1(C)C", "note": "[4,5,6,7-tetrafluoro-1-(oxan-4-ylmethyl)-3-[(2,2,3,3-tetramethylcyclopropyl)carbonyl]-1H-indole]", "EC50": 40},
      {"smiles": "CC1(C)C(C(=O)c2cn(CC3CCOCC3)c3cc4c(cc23)OCO4)C1(C)C", "note": "[5-(oxan-4-ylmethyl)-7-[(2,2,3,3-tetramethylcyclopropyl)carbonyl]-2H,5H-[1,3]dioxolo[4,5-f]indole]", "EC50": 29.5},
      {"smiles": "CC1(C)C(C(=O)c2cn(CC3CCOCC3)c3cc(OCc4ccccc4)ccc23)C1(C)C", "note": "[6-(benzyloxy)-1-(oxan-4-ylmethyl)-3-[(2,2,3,3-tetramethylcyclopropyl)carbonyl]-1H-indole]", "EC50": 167},
      {"smiles": "COc1cccc2c1c(C(=O)C1C(C)(C)C1(C)C)cn2CC1CCOCC1", "note": "[4-methoxy-1-(oxan-4-ylmethyl)-3-[(2,2,3,3-tetramethylcyclopropyl)carbonyl]-1H-indole]", "EC50": 91}
    ]}
  ]
}
